Where “and” joins values, the source holds several entries; their conditions need not be identical. Identical values can stand only once. Toxic doses and inconclusive results are not listed. Cut-off read from the data, not from the text of the source: active = T/C of 150% or more; inactive = T/C below 125%.
Tested on: L1210 leukemia ip in BDF1 mice, survival T/C
Test: NCI In Vivo Anticancer Drug Screen. Data for tumor model L1210 Leukemia (intraperitoneal) in B6D2F1 (BDF1) mice
Details: endpoint: mean survival time, higher = longer survival
Outline: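 In this screen, tumor-bearing mice given compound are compared to those given vehicle, and their survival values are reported as a treated-to-control quotient.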

[1] = dose: 100.0 mg/kg/injection, schedule: Q01DX009 (ip), vehicle: Klucel (hydroxypropylcellulose) (HPC)
[2] = dose: 100.0 mg/kg/injection, schedule: Q04DX003 (ip), vehicle: Klucel (hydroxypropylcellulose) (HPC)
[3] = dose: 200.0 mg/kg/injection, schedule: Q04DX003 (ip), vehicle: Klucel (hydroxypropylcellulose) (HPC)
[4] = dose: 200.0 mg/kg/injection, schedule: Q01DX009 (ip), vehicle: Klucel (hydroxypropylcellulose) (HPC)
[5] = dose: 400.0 mg/kg/injection, schedule: Q01DX009 (ip), vehicle: Klucel (hydroxypropylcellulose) (HPC)
[6] = dose: 400.0 mg/kg/injection, schedule: Q04DX003 (ip), vehicle: Klucel (hydroxypropylcellulose) (HPC)
[7] = dose: 100.0 mg/kg/injection, schedule: Q04DX003 (ip), vehicle: saline
[8] = dose: 100.0 mg/kg/injection, schedule: Q01DX001 (ip), vehicle: saline
[9] = dose: 200.0 mg/kg/injection, schedule: Q01DX001 (ip), vehicle: saline
[10] = dose: 400.0 mg/kg/injection, schedule: Q01DX001 (ip), vehicle: saline

Measured: T/C

CN(C)CCC(O)(Cc1ccccc1)c1ccccc1 (configuration not stated)
inactive: dose: 50.0 mg/kg/injection, schedule: Q01DX009 (ip), vehicle: Klucel (hydroxypropylcellulose) (HPC) 95 % of control | [1] 101 % of control | [2] 95 % of control | [3] 101 % of control

Cc1ccn(-c2cc(NS(=O)(=O)c3ccccc3)c3ccccc3c2NS(=O)(=O)c2ccccc2)c(=O)c1
inactive: dose: 50.0 mg/kg/injection, schedule: Q01DX001 (ip), vehicle: Klucel (hydroxypropylcellulose) (HPC) 107 % of control | dose: 100.0 mg/kg/injection, schedule: Q01DX001 (ip), vehicle: Klucel (hydroxypropylcellulose) (HPC) 94 % of control | dose: 200.0 mg/kg/injection, schedule: Q01DX001 (ip), vehicle: Klucel (hydroxypropylcellulose) (HPC) 97 % of control

O=C(CNC(=O)c1ccccc1)N/N=C\c1c[nH]c2ccccc12
inactive: dose: 100.0 mg/kg/injection, schedule: Q01DX009 (ip), vehicle: saline with Tween-80 97 % of control | dose: 200.0 mg/kg/injection, schedule: Q01DX009 (ip), vehicle: saline with Tween-80 99 % of control | dose: 400.0 mg/kg/injection, schedule: Q01DX009 (ip), vehicle: saline with Tween-80 100 % of control

CC(=O)c1ccccc1I
inactive: [1] 94 % of control | [2] 100 % of control | [4] 97 % of control | [3] 94 % of control | [5] 103 % of control | [6] 95 % of control

CCCCC(=O)N1CCCCC1
inactive: dose: 50.0 mg/kg/injection, schedule: Q01DX001 (ip), vehicle: carboxymethylcellulose (CMC) 104 % of control | dose: 50.0 mg/kg/injection, schedule: Q01DX009 (ip), vehicle: carboxymethylcellulose (CMC) 94 % of control and 97 % of control | dose: 50.0 mg/kg/injection, schedule: Q04DX003 (ip), vehicle: carboxymethylcellulose (CMC) 102 % of control | dose: 100.0 mg/kg/injection, schedule: Q01DX001 (ip), vehicle: carboxymethylcellulose (CMC) 106 % of control | dose: 100.0 mg/kg/injection, schedule: Q01DX009 (ip), vehicle: carboxymethylcellulose (CMC) 94 % of control and 102 % of control | dose: 100.0 mg/kg/injection, schedule: Q04DX002 (ip), vehicle: carboxymethylcellulose (CMC) 98 % of control | dose: 100.0 mg/kg/injection, schedule: Q04DX003 (ip), vehicle: carboxymethylcellulose (CMC) 96 % of control | dose: 200.0 mg/kg/injection, schedule: Q01DX001 (ip), vehicle: carboxymethylcellulose (CMC) 101 % of control | dose: 200.0 mg/kg/injection, schedule: Q01DX009 (ip), vehicle: carboxymethylcellulose (CMC) 96 % of control and 87 % of control | dose: 200.0 mg/kg/injection, schedule: Q04DX002 (ip), vehicle: carboxymethylcellulose (CMC) 91 % of control | dose: 200.0 mg/kg/injection, schedule: Q04DX003 (ip), vehicle: carboxymethylcellulose (CMC) 97 % of control

CC(=Nc1ccccc1)NO
inactive: dose: 50.0 mg/kg/injection, schedule: Q01DX009 (ip), vehicle: acetone 94 % of control | dose: 100.0 mg/kg/injection, schedule: Q01DX009 (ip), vehicle: acetone 97 % of control | [7] 96 % of control | dose: 200.0 mg/kg/injection, schedule: Q01DX009 (ip), vehicle: acetone 100 % of control | dose: 200.0 mg/kg/injection, schedule: Q04DX003 (ip), vehicle: saline 108 % of control | dose: 400.0 mg/kg/injection, schedule: Q04DX003 (ip), vehicle: saline 96 % of control

COc1cc([N+](=O)[O-])ccc1S(=O)(=O)F
inactive: dose: 100.0 mg/kg/injection, schedule: Q01DX009 (ip), vehicle: gum acacia 95 % of control | dose: 200.0 mg/kg/injection, schedule: Q01DX009 (ip), vehicle: gum acacia 98 % of control | dose: 400.0 mg/kg/injection, schedule: Q01DX009 (ip), vehicle: gum acacia 90 % of control

Cc1cc(C)cc(-n2cccc2C(=O)O)c1
inactive: dose: 100.0 mg/kg/injection, schedule: Q04DX002 (ip), vehicle: Klucel (hydroxypropylcellulose) (HPC) 89 % of control | dose: 200.0 mg/kg/injection, schedule: Q04DX002 (ip), vehicle: Klucel (hydroxypropylcellulose) (HPC) 86 % of control | dose: 400.0 mg/kg/injection, schedule: Q04DX002 (ip), vehicle: Klucel (hydroxypropylcellulose) (HPC) 96 % of control

CCOP(=O)(O)Cc1c(Cl)c(Cl)c(CP(=O)(O)OCC)c(Cl)c1Cl
inactive: [8] 110 % of control | [9] 104 % of control | [10] 107 % of control

CC(C)(C)/C([O-])=N/[N+](C)(C)Cc1ccccc1
inactive: [8] 97 % of control | [9] 98 % of control | [10] 98 % of control

O=C1C=CC(=NCl)C=C1
inactive: dose: 1.25 mg/kg/injection, schedule: Q01DX015 (ip), vehicle: carboxymethylcellulose (CMC) 92 % of control | dose: 2.5 mg/kg/injection, schedule: Q01DX015 (ip), vehicle: carboxymethylcellulose (CMC) 91 % of control | dose: 5.0 mg/kg/injection, schedule: Q01DX001 (ip), vehicle: carboxymethylcellulose (CMC) 114 % of control | dose: 5.0 mg/kg/injection, schedule: Q01DX015 (ip), vehicle: carboxymethylcellulose (CMC) 95 % of control | dose: 10.0 mg/kg/injection, schedule: Q01DX001 (ip), vehicle: carboxymethylcellulose (CMC) 111 % of control

O=C(O)CC1(O)CCCC1
inactive: dose: 25.0 mg/kg/injection, schedule: Q04DX003 (ip), vehicle: saline 100 % of control | dose: 50.0 mg/kg/injection, schedule: Q04DX003 (ip), vehicle: saline 96 % of control | [7] 107 % of control

O=c1[nH]c(=S)[nH]c(-c2ccccc2)c1Cc1ccccc1
inactive: dose: 50.0 mg/kg/injection, schedule: Q01DX001 (ip), vehicle: saline 100 % of control | [8] 96 % of control | [9] 94 % of control | [10] 94 % of control

CCCC(C)C(=NC)Nc1ccc(Cl)c(Cl)c1 (configuration not stated)
inactive: dose: 11.1 mg/kg/injection, schedule: Q01DX Z (ip), vehicle: methylcellulose (MC) 91 % of control | dose: 16.6 mg/kg/injection, schedule: Q01DX Z (ip), vehicle: methylcellulose (MC) 95 % of control

C/C=C/C=N/NC(=O)c1ccc[n+](C)c1
inactive: dose: 50.0 mg/kg/injection, schedule: Q01DX009 (ip), vehicle: saline 112 % of control | dose: 100.0 mg/kg/injection, schedule: Q01DX009 (ip), vehicle: saline 104 % of control | dose: 200.0 mg/kg/injection, schedule: Q01DX009 (ip), vehicle: saline 112 % of control

CN(N=O)C(=O)NCc1ccc(Cl)cc1
inactive: dose: 9.0 mg/kg/injection, schedule: Q01DX Z (ip), vehicle: carboxymethylcellulose (CMC) 108 % of control | dose: 18.0 mg/kg/injection, schedule: Q01DX Z (ip), vehicle: carboxymethylcellulose (CMC) 91 % of control | dose: 37.0 mg/kg/injection, schedule: Q01DX Z (ip), vehicle: carboxymethylcellulose (CMC) 101 % of control | dose: 75.0 mg/kg/injection, schedule: Q01DX Z (ip), vehicle: carboxymethylcellulose (CMC) 111 % of control | dose: 100.0 mg/kg/injection, schedule: Q01DX Z (ip), vehicle: carboxymethylcellulose (CMC) 109 % of control | dose: 150.0 mg/kg/injection, schedule: Q01DX Z (ip), vehicle: carboxymethylcellulose (CMC) 118 % of control | dose: 200.0 mg/kg/injection, schedule: Q01DX Z (ip), vehicle: carboxymethylcellulose (CMC) 119 % of control

[C](#Cc1ccccc1)[Hg][C]#Cc1ccccc1
inactive: [2] 103 % of control | [3] 94 % of control | [6] 96 % of control

Cc1cc2c(c(NC(=O)NCCCl)c1C)CCCC2
inactive: [1] 92 % of control | [2] 105 % of control | [4] 100 % of control | [3] 96 % of control | [5] 91 % of control | [6] 103 % of control

CCC(N)C(O)C(F)(F)C(F)(F)C(F)(F)F (configuration not stated)
inactive: [8] 112 % of control | [9] 103 % of control

CCCCCCCCCCCCCCCCCCN1CNC(=O)NC1
inactive: [2] 93 % of control | [3] 101 % of control

Reference: PubChem BioAssay AID248 (DTP/NCI, 2004)
